Laboratory results: patent US20210330611A1, “THERAPY FOR NEUROLOGICAL DISEASES/DISORDERS” (priority 2020, published 2021)
Structures can show the parent of a compound that is named as a salt.

Key:
primary rat microglia [1] = assay: Cell toxicity (dead cells, size <150 μm2) in LPS assay; conditions: primary microglia HTS, 10 μM, LPS assay, cell size <150 μm^2 as marker of toxicity
primary rat microglia [2] = assay: Cell toxicity (dead cells, size <150 μm2) in coated fibrin (cFib) assay; conditions: primary microglia HTS, 10 μM, fibrin assay, cell size <150 μm^2 as marker of toxicity;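 further: share of dead cells sized under 150 µm2 at 10 µM in fibrin-stimulated microglia HTS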
[3] = system: fibrin-induced microglia activation; assay: Image-based assay of fibrin-induced microglia activation (HTS and dose response); type: cell-based, rat; conditions: primary microglia HTS, 10 μM, fibrin-stimulated, cell size >800 μm^2 as marker of activation; for inhibition at 10 µM: Rattus norvegicus, Microglia, read-out: Fibrin % inhibition
[4] = system: fibrin- and LPS-induced microglia activation; assay: cells; type: cell-based, rat; conditions: HTS of 1907 compounds, quadrant by fibrin and LPS inhibition
[5] = system: LPS-induced microglia activation; assay: Image-based assay of LPS-induced microglia activation (HTS and dose response); type: cell-based, rat; conditions: primary microglia HTS, 10 μM, LPS-stimulated, cell size >800 μm^2 as marker of activation; for inhibition at 10 µM: Rattus norvegicus, Microglia, read-out: LPS % inhibition

Question: What does the source list for `COc1ccc2[nH]c([S+]([O-])Cc3ncc(C)c(OC)c3C)nc2n1` (stereo not drawn) [Tenatoprazole]?
Answer: LPS % cell toxicity (primary rat microglia [1]): 0%; Fibrin % cell toxicity (primary rat microglia [2]): 1%; inhibition at 10 µM [3]: -17%; Quadrant (FIG. 5b) [4]: Q4; inhibition at 10 µM [5]: 9%

Question: For `C[C@H](Cn1cnc2c(N)ncnc21)OCP(=O)(O)O` [Tenofovir], which “LPS % cell toxicity” value (primary rat microglia [1]) is on record?
Answer: Its value is 0%.

Question: And the “Fibrin % cell toxicity” value (primary rat microglia [2])?
Answer: Its value is 0%.

Question: What about the Fibrin % inhibition [3] of the same compound?
Answer: The Fibrin % inhibition was −10%.

Question: What about the “Quadrant (FIG. 5b)” value [4] of the same compound?
Answer: The value was “Q4”.

Question: What about the LPS % inhibition [5] of the same compound?
Answer: Its LPS % inhibition is 17%.

Question: `O=C1/C(=C/c2cccs2)CCC/C1=C\c1cccs1` [Tenylidone] was tested. Which “LPS % cell toxicity” value (primary rat microglia [1]) did it give?
Answer: Its value is 0%.

Question: And the “Fibrin % cell toxicity” value (primary rat microglia [2])?
Answer: The value was 1%.

Question: And the inhibition at 10 µM [3]?
Answer: Its inhibition at 10 µM is -9%.

Question: What about the “Quadrant (FIG. 5b)” value [4] of the same compound?
Answer: Its value is “Q4”.

Question: What about the inhibition at 10 µM [5] of the same compound?
Answer: The inhibition at 10 µM was 15%.

Question: With `CN(C/C=C/C#CC(C)(C)C)Cc1cccc2ccccc12` [Terbinafine, Terbinafine Hydrochloride] as the compound, how does the “LPS % cell toxicity” value (primary rat microglia [1]) read?
Answer: Its value is 0%.

Question: And the “Fibrin % cell toxicity” value (primary rat microglia [2])?
Answer: Its value is 0%.

Question: What about the Fibrin % inhibition [3] of the same compound?
Answer: Its Fibrin % inhibition is −23%.

Question: And the “Quadrant (FIG. 5b)” value [4]?
Answer: The value was “Q4”.

Question: What about the LPS % inhibition [5] of the same compound?
Answer: The LPS % inhibition was 6%.

Question: With `CC(C)(C)NCC(O)c1cc(O)cc(O)c1` (stereo not drawn) [Terbutaline] as the compound, how does the “LPS % cell toxicity” value (primary rat microglia [1]) read?
Answer: The value was 0%.

Question: What about the “Fibrin % cell toxicity” value (primary rat microglia [2]) of the same compound?
Answer: Its value is 1%.

Question: What about the inhibition at 10 µM [3] of the same compound?
Answer: The inhibition at 10 µM was 39%.

Question: What about the “Quadrant (FIG. 5b)” value [4] of the same compound?
Answer: Its value is “Q4”.

Question: And the inhibition at 10 µM [5]?
Answer: Its inhibition at 10 µM is 28%.

Question: What does the source list for `CC1(O)CCC(C(C)(C)O)CC1.O` (stereo not drawn) [Terpene Hydrate]?
Answer: LPS % cell toxicity (primary rat microglia [1]): 0%; Fibrin % cell toxicity (primary rat microglia [2]): 1%; Fibrin % inhibition [3]: −6%; Quadrant (FIG. 5b) [4]: Q4; LPS % inhibition [5]: 8%

Question: How did the “LPS % cell toxicity” value (primary rat microglia [1]) turn out when `CCCCNc1ccc(C(=O)OCCN(C)C)cc1` [Tetracaine] was run?
Answer: Its value is 1%.

Question: What about the “Fibrin % cell toxicity” value (primary rat microglia [2]) of the same compound?
Answer: The value was 1%.

Question: What about the inhibition at 10 µM [3] of the same compound?
Answer: The inhibition at 10 µM was 4%.

Question: What about the “Quadrant (FIG. 5b)” value [4] of the same compound?
Answer: Its value is “Q4”.

Question: What about the inhibition at 10 µM [5] of the same compound?
Answer: The inhibition at 10 µM was 9%.

Question: How did the “LPS % cell toxicity” value (primary rat microglia [1]) turn out when `O=C1C(O)=C(O)C(=O)C(O)=C1O` [Tetraquinone] was run?
Answer: The value was 0%.

Question: And the “Fibrin % cell toxicity” value (primary rat microglia [2])?
Answer: The value was 0%.

Question: What about the Fibrin % inhibition [3] of the same compound?
Answer: Its Fibrin % inhibition is −10%.

Question: What about the “Quadrant (FIG. 5b)” value [4] of the same compound?
Answer: The value was “Q4”.

Question: And the LPS % inhibition [5]?
Answer: The LPS % inhibition was 15%.

Question: Which results are given for `c1ccc2c(c1)CCCC2C1=NCCN1` (stereo not drawn) [Tetryzoline]?
Answer: LPS % cell toxicity (primary rat microglia [1]): 0%; Fibrin % cell toxicity (primary rat microglia [2]): 0%; inhibition at 10 µM [3]: -29%; Quadrant (FIG. 5b) [4]: Q4; inhibition at 10 µM [5]: 16%

Question: What does the source list for `Cn1cnc2c1c(=O)[nH]c(=O)n2C` [Theobromine]?
Answer: LPS % cell toxicity (primary rat microglia [1]): 1%; Fibrin % cell toxicity (primary rat microglia [2]): 0%; inhibition at 10 µM [3]: 11%; Quadrant (FIG. 5b) [4]: Q4; inhibition at 10 µM [5]: 18%

Question: Which results are given for `CS(=O)(=O)c1ccc([C@@H](O)[C@@H](CO)NC(=O)C(Cl)Cl)cc1` [Thiamphenicol]?
Answer: LPS % cell toxicity (primary rat microglia [1]): 0%; Fibrin % cell toxicity (primary rat microglia [2]): 0%; inhibition at 10 µM [3]: -19%; Quadrant (FIG. 5b) [4]: Q4; inhibition at 10 µM [5]: 12%

Question: What does the source list for `C=CCC1(C(C)CCC)C(=O)N=C(S)NC1=O` (stereo not drawn) [Thiamylal]?
Answer: LPS % cell toxicity (primary rat microglia [1]): 0%; Fibrin % cell toxicity (primary rat microglia [2]): 0%; inhibition at 10 µM [3]: -1%; Quadrant (FIG. 5b) [4]: Q4; inhibition at 10 µM [5]: 26%

Question: Which “LPS % cell toxicity” value (primary rat microglia [1]) does the source give for `O=c1oc2cc(O)ccc2s1` [Thioxolone, Tioxolone] here?
Answer: Its value is 0%.

Question: And the “Fibrin % cell toxicity” value (primary rat microglia [2])?
Answer: The value was 0%.

Question: What about the Fibrin % inhibition [3] of the same compound?
Answer: Its Fibrin % inhibition is −18%.

Question: And the “Quadrant (FIG. 5b)” value [4]?
Answer: Its value is “Q4”.

Question: What about the LPS % inhibition [5] of the same compound?
Answer: Its LPS % inhibition is 12%.

Question: What does the source list for `CCCCCCCCCCCCCCCC[N+](C)(C)CCN(Cc1ccc(OC)cc1)c1ncccn1` [Thonzonium Bromide]?
Answer: LPS % cell toxicity (primary rat microglia [1]): 1%; Fibrin % cell toxicity (primary rat microglia [2]): 0%; inhibition at 10 µM [3]: -1%; Quadrant (FIG. 5b) [4]: Q4; inhibition at 10 µM [5]: 19%

Question: How did the “LPS % cell toxicity” value (primary rat microglia [1]) turn out when `N[C@@H](Cc1cc(I)c(Oc2cc(I)c(O)c(I)c2)c(I)c1)C(=O)O` [Thyroxine, Levothyroxine] was run?
Answer: Its value is 1%.

Question: And the “Fibrin % cell toxicity” value (primary rat microglia [2])?
Answer: Its value is 1%.

Question: And the Fibrin % inhibition [3]?
Answer: The Fibrin % inhibition was 5%.

Question: What about the “Quadrant (FIG. 5b)” value [4] of the same compound?
Answer: The value was “Q4”.

Question: What about the LPS % inhibition [5] of the same compound?
Answer: Its LPS % inhibition is 25%.
